Data as given in ChEMBL document CHEMBL1201862, “PubChem BioAssay data set” (2004).
Values belong to the molecule of their own block, whether it stands above or below them. Calls of active or inactive are those of the source.

How the values were obtained:
[1] = biological target: Intestinal-type alkaline phosphatase (Homo sapiens, UniProt P09923); test: Dose Response confirmation of uHTS hits from a small molecule inhibitors of human intestinal alkaline phosphatase via a luminescent assay. [Related pubchem assays (depositor defined):AID2544, AID2574]; assay type: functional
[2] = biological target: T1, Mannose-6-phosphate isomerase (Homo sapiens, UniProt P34949); test: inhibitors of human PMI, primary screen, biochemical, fluorescence intensity, coupled assay (AID 1209)
T1 sequence (P34949 whole entry): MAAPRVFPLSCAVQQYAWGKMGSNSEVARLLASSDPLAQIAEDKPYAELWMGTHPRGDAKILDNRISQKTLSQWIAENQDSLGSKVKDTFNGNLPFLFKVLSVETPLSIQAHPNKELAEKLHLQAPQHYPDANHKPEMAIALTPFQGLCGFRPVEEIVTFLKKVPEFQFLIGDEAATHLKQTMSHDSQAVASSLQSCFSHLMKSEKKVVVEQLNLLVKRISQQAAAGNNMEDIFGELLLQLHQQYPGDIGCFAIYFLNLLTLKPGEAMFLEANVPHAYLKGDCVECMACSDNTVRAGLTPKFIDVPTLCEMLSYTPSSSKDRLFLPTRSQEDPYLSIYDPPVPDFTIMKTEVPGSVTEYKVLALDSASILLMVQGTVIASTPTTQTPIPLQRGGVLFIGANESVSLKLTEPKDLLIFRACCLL

[3] = biological target: T1, Mannose-6-phosphate isomerase; test: human PMI inhibitors, high substrate, primary screen, biochemical, fluorescence intensity, high mannose 6-phosphate (AID 1220)
[4] = biological target: T2, Apoptotic protease-activating factor 1 (Homo sapiens, UniProt O14727); assay type: functional
T2 sequence (O14727 whole entry): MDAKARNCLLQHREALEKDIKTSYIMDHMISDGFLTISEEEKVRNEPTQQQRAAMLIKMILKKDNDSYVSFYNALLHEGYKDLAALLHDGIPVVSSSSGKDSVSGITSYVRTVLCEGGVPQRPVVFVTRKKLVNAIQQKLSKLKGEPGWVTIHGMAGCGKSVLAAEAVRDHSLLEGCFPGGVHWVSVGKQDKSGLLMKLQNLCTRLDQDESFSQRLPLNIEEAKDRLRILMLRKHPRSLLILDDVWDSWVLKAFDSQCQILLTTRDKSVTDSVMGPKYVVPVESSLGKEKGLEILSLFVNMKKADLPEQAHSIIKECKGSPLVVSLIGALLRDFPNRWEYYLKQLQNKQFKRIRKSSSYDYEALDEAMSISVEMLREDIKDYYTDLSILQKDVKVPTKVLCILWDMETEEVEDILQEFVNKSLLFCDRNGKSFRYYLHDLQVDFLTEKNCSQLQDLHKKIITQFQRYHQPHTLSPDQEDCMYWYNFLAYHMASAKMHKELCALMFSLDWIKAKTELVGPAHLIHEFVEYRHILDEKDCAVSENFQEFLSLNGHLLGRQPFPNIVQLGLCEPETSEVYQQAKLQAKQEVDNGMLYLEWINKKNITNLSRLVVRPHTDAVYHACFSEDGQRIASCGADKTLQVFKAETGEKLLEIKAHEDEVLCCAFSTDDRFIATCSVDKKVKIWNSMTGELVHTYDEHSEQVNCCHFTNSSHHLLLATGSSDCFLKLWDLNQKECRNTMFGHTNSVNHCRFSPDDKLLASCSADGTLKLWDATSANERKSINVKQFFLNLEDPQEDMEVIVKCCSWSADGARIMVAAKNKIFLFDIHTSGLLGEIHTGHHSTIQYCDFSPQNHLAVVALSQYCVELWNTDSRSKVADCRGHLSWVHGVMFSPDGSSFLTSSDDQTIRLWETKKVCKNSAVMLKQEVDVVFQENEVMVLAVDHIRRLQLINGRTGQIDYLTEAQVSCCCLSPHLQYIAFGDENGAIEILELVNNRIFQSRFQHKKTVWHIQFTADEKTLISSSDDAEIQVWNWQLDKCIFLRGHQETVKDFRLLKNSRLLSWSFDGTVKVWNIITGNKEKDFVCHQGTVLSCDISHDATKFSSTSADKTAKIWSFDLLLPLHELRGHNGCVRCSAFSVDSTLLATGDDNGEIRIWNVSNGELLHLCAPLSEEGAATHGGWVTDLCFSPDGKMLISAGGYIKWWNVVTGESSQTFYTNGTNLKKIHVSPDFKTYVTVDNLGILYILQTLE

[5] = biological target: T3, Bcl-2-like protein 10 (Homo sapiens, UniProt Q9HD36); test: displacers of TR3 peptide from Bcl-B, primary screen, selectivity assay for Bfl-1 inhibitor project, biochemical, fluorescence polarization, FITC-TR3 peptide (AID 748);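 also: fluorescence polarization from a fluorescein-labelled TR3 peptide binding purified Bcl-B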
T3 sequence (Q9HD36 whole entry): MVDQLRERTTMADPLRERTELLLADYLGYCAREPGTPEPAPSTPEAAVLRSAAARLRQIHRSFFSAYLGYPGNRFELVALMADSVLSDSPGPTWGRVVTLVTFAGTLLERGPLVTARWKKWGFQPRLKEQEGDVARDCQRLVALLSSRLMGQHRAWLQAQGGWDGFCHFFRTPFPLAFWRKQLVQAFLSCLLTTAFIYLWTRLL

[6] = biological target: T4, Hexokinase HKDC1 (Homo sapiens, UniProt Q2TB90); test: HKDC1 hexokinase inhibitors, dose response, biochemical, W721R variant (AID 504729); assay type: functional
T4 sequence (Q2TB90 whole entry): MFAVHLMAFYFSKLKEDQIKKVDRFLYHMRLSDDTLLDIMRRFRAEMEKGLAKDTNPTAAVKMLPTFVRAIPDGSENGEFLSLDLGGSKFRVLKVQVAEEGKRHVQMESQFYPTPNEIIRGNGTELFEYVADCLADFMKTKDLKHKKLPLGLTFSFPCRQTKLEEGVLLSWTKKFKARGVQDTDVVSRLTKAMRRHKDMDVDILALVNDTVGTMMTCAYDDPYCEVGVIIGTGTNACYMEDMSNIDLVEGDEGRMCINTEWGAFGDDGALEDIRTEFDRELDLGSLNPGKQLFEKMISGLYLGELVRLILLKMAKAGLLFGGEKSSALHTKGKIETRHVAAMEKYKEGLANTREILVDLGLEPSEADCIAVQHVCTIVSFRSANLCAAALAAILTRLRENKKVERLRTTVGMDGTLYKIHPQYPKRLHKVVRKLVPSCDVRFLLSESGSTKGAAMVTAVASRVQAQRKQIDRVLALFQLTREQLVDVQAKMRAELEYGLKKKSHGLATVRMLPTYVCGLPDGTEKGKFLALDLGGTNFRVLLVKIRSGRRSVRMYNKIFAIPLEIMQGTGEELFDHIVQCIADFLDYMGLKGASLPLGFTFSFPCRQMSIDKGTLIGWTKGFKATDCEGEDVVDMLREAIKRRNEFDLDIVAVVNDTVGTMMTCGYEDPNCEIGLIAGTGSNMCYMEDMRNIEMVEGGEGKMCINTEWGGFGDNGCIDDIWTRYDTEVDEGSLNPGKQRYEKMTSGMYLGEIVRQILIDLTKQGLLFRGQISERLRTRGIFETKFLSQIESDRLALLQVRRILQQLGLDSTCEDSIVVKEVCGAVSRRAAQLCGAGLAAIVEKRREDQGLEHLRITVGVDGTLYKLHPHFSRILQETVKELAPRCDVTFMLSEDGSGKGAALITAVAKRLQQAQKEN

[7] = biological target: T5, Estrogen receptor (Homo sapiens, UniProt P03372);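 also: potency for inhibiting coactivator peptide recruitment to the receptor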
T5 sequence (P03372 whole entry): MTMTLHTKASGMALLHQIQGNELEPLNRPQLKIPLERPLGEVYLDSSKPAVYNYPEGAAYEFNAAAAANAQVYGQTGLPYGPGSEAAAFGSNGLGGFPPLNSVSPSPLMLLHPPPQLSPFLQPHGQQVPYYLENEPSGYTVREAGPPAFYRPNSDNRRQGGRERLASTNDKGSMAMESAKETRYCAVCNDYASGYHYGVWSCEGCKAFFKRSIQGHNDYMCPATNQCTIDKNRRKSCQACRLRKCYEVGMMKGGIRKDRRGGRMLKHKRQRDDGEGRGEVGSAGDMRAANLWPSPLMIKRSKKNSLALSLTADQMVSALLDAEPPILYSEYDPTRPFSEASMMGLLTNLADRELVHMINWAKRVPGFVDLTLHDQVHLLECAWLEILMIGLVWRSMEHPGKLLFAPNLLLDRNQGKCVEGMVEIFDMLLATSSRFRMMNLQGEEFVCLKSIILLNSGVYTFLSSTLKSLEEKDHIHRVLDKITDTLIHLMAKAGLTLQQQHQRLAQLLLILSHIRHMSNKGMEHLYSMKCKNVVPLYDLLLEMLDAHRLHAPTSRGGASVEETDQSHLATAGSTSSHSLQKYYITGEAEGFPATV

[8] = biological target: Glyceraldehyde-3-phosphate dehydrogenase (Homo sapiens, UniProt P04406)
Sequence of Glyceraldehyde-3-phosphate dehydrogenase (P04406 whole entry): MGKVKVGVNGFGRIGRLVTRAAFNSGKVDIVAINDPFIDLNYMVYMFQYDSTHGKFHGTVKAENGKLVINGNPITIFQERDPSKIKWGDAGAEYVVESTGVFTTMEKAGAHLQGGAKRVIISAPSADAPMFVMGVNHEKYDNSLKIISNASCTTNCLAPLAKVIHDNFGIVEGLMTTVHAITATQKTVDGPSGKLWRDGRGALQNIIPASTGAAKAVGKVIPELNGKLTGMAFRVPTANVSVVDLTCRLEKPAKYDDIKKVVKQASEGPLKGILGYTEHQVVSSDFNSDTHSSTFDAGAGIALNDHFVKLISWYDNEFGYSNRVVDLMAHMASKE

[9] = inhibitors of intracellular T. cruzi replication, confirmation, NIH3T3 host cells, beta-gal luminescence (AID 2044); assay type: functional, cell-based;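 also: intracellular parasites grown in NIH/3T3 mouse fibroblasts as host cells; luminescent beta-galactosidase reporter signal from transgenic T. cruzi replicating inside host cells; inhibitors lower the luminescence signal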
[10] = cytotoxicity toward NIH3T3 fibroblasts, dose response, counter-screen, cell-based, ATP luminescence, mouse fibroblasts (AID 2010); assay type: functional;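 also: cells exposed to compound for about 90 hours before reading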
[11] = biological target: T6, Voltage-gated N-type calcium channel alpha-1B subunit/Amyloid beta A4 precursor protein-binding family A member 1 (Homo sapiens, UniProt Q00975+Q02410); assay type: protein assay
T6 sequence (Q00975 whole entry): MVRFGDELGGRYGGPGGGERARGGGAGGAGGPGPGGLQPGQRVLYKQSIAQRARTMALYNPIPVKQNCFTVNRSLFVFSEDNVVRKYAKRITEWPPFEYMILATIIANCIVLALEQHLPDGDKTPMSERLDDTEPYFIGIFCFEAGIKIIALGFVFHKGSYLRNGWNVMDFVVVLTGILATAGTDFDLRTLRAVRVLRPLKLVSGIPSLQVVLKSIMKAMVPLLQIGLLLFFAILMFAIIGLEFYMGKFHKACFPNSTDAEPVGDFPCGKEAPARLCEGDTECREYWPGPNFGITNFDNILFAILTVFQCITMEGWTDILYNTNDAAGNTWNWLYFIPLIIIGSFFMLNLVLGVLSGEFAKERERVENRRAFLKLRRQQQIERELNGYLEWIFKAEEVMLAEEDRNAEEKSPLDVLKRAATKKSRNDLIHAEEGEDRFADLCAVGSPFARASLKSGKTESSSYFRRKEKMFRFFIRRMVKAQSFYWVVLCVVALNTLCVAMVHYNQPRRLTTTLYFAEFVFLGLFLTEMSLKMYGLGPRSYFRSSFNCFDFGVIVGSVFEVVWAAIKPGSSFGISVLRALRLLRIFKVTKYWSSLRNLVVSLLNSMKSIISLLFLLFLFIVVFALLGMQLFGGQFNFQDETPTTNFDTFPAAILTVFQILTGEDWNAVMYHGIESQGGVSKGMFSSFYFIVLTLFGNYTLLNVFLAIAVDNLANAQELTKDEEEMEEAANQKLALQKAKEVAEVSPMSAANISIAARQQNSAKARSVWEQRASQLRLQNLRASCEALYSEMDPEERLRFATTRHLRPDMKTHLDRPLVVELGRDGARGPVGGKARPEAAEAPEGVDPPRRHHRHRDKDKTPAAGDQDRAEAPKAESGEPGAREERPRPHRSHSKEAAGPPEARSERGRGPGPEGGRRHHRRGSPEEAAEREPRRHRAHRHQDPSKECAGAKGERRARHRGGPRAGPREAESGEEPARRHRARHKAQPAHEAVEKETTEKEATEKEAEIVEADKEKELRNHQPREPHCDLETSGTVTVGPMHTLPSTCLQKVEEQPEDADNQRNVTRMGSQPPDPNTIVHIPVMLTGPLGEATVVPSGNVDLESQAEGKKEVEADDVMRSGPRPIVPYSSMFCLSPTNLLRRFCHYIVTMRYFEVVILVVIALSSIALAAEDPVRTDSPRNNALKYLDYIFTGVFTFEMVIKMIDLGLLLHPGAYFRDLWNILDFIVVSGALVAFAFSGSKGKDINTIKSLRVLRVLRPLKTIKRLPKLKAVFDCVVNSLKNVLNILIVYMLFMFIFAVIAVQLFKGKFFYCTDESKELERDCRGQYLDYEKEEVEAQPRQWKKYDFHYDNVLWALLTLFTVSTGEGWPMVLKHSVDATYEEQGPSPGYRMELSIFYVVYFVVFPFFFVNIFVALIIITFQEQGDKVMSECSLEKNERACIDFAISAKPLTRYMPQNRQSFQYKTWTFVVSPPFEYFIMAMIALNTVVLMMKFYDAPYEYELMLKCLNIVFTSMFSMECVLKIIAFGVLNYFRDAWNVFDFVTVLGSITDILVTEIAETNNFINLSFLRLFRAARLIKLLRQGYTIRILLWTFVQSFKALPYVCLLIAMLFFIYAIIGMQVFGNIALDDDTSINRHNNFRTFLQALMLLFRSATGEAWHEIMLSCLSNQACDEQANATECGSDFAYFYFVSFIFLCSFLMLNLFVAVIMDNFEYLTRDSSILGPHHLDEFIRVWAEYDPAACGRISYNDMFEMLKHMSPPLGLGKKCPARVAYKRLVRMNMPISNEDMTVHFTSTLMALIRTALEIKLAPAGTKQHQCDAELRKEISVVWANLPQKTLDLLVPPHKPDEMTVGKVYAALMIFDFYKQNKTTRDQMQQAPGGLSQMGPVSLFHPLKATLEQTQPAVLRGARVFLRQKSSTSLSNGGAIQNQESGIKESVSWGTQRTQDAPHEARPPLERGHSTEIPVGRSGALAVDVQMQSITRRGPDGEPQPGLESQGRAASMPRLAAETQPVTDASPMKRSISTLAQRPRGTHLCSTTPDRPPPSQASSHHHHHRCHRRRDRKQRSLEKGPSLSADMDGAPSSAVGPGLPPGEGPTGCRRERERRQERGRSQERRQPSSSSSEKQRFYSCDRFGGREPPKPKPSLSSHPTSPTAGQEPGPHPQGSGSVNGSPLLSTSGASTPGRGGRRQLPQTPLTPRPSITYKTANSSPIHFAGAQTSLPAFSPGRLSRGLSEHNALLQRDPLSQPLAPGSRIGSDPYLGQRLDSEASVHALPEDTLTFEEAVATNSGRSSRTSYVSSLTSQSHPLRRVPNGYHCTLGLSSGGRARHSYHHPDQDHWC
T6 sequence (Q02410 whole entry): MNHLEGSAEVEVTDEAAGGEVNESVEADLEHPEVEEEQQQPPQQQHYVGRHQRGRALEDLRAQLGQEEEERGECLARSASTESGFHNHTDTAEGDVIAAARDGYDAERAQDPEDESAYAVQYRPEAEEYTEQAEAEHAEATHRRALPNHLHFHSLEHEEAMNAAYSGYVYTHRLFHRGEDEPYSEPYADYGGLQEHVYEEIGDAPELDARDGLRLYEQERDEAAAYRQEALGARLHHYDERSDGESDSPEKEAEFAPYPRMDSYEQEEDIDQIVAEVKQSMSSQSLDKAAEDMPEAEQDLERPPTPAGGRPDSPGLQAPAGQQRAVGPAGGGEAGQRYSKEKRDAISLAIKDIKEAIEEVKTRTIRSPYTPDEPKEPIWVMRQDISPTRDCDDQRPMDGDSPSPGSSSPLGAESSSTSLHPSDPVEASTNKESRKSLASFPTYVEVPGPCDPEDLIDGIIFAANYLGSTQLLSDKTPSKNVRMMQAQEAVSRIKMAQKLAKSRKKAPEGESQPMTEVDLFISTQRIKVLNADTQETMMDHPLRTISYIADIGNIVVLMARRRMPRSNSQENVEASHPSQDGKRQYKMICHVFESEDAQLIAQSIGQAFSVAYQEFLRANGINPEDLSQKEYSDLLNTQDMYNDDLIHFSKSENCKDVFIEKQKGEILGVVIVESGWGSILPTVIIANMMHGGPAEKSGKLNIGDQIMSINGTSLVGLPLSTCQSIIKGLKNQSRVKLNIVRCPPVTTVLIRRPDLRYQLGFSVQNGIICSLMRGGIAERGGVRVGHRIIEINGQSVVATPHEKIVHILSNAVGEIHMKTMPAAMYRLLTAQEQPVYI

[12] = biological target: T6, Voltage-gated N-type calcium channel alpha-1B subunit/Amyloid beta A4 precursor protein-binding family A member 1; assay type: protein assay; remark: listed apart in the source
[13] = biological target: T7, Alkaline phosphatase, tissue-nonspecific isozyme (Homo sapiens, UniProt P05186); test: human TNAP enzyme inhibitors, SAR follow-up, biochemical, luminescent, dose response (AID 1056)
T7 sequence (P05186 whole entry): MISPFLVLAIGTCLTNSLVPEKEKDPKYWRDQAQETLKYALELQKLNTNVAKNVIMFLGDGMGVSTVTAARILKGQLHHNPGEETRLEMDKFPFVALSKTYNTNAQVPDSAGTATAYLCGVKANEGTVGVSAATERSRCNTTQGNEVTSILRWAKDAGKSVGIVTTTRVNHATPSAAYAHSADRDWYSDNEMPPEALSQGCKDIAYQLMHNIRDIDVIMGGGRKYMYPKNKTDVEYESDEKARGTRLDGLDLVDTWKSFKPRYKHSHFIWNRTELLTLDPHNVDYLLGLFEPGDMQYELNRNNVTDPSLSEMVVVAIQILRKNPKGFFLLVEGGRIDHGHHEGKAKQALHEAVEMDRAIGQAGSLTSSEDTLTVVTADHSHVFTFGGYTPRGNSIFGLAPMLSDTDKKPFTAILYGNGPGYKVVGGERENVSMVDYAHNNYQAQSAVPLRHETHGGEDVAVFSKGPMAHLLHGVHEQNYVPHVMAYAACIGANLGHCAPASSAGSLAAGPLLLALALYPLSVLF

[14] = biological target: Induced myeloid leukemia cell differentiation protein Mcl-1 (Homo sapiens, UniProt Q07820); assay type: functional
Sequence of Induced myeloid leukemia cell differentiation protein Mcl-1 (Q07820 whole entry): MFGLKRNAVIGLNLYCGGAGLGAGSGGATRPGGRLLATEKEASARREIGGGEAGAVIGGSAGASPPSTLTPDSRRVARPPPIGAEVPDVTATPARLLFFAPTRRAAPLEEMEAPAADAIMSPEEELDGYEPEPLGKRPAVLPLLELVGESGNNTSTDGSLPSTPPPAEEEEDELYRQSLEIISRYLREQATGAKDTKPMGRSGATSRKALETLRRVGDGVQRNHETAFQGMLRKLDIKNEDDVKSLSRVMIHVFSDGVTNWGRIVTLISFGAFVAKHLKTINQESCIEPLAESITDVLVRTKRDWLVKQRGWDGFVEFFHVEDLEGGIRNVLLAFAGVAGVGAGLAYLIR

[15] = biological target: G-protein coupled receptor 55 (Homo sapiens, UniProt Q9Y2T6); test: GPR55 agonists via beta-arrestin recruitment, primary screen, imaging, U2OS cells, beta-arrestin-GFP redistribution (AID 1961); assay type: functional
Sequence of G-protein coupled receptor 55 (Q9Y2T6 whole entry): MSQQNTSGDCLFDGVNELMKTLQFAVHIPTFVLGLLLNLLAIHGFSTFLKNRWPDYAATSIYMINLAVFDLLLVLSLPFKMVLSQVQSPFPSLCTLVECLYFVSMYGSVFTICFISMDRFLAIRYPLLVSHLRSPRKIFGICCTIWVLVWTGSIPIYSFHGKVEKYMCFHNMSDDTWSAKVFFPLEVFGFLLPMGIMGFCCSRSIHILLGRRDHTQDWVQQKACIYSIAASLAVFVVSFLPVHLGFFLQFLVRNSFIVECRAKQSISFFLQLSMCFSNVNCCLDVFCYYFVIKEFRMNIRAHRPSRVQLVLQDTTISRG

[16] = biological target: Estrogen receptor beta (Homo sapiens, UniProt Q92731);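 also: recombinant ER-beta bound to coactivator SRC1 peptide in presence of estradiol agonist; inhibitors block coactivator peptide binding and lower the FRET signal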
Sequence of Estrogen receptor beta (Q92731 whole entry): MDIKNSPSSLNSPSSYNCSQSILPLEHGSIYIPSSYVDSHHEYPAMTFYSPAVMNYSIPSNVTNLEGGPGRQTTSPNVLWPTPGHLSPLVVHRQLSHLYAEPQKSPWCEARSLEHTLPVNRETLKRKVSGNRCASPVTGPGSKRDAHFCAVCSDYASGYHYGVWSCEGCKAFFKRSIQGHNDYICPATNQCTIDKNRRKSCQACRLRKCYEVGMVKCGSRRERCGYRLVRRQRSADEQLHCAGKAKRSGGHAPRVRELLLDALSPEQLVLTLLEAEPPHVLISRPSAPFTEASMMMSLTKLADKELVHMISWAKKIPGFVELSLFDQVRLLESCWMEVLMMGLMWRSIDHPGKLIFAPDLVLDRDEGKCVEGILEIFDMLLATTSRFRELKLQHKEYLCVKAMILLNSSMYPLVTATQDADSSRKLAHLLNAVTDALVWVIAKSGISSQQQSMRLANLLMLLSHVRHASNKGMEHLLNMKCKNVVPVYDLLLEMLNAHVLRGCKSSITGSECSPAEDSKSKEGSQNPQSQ

IC50 [1]: > 100 µM (inactive)
Structure (SMILES): O=C(CN1CCN(C(=O)N2CCCCC2)CC1)Nc1ccc(F)cc1

Structure (SMILES): CCCCCn1c(NC(=O)c2ccco2)c(C(=O)OCC)c2nc3ccccc3nc21
IC50 [2]: > 50 µM (not active)
IC50 [3]: > 50 µM (not active)
IC50 [4]: 20.3 µM (active)

IC50 [5]: 18.2 µM (active)
Structure (SMILES): Cc1c(Cl)cnc(NC(=O)COC(=O)C(NC(=O)c2ccco2)C(C)C)c1Cl (stereo unspecified)

IC50 [6]: 3.39 µM (active)
Structure (SMILES): CC(C)c1nc2oc3c(NCCO)ncnc3c2c2c1COC(C)(C)C2

IC50 [7]: 8.77 µM (active)
Structure (SMILES): Cc1cc(C)nc(NC(=O)CSc2nn(C)c(=S)s2)n1

IC50 [8]: > 100 µM (not active)
Structure (SMILES): Cc1ccc2[nH]c(SCC(=O)Nc3ccc(O)c(C(=O)O)c3)nc2c1

Structure (SMILES): COC(=O)c1cc2ccsc2n1CC(=O)Nc1ccc(N(C)C)cc1
EC50 [9]: 4.34 µM (active)
EC50 [10]: > 30 µM (not active)
IC50 [7]: 47.3 µM (not active)

IC50 [11]: > 50 µM (inactive)
IC50 [12]: 9.8 µM (active)
Structure (SMILES): CC1=C(C(=O)O)N2C(=O)C(NC(=O)c3nn(C)c(C)c3Cl)C2SC1 (stereo unspecified)

IC50 [13]: > 100 µM (inactive)
IC50 [8]: > 100 µM (not active)
Structure (SMILES): COc1ccccc1Oc1ccc(S(=O)(=O)Nc2cccnc2)cc1

IC50 [2]: 33.9 µM (active)
Structure (SMILES): Cc1snc(SCC(=O)c2ccc([N+](=O)[O-])cc2)c1C#N

Structure (SMILES): N#CC(C#N)=NNc1ccc(S(N)(=O)=O)cc1
IC50 [14]: 4.71 µM (active)
IC50 [11]: > 50 µM (inactive)
IC50 [12]: 16.9 µM (active)

Structure (SMILES): CCCN(CCC)c1nc2c(C)cccn2c(=O)c1/C=C1/SC(=S)N(Cc2ccco2)C1=O
EC50 [9]: 0.352 µM (active)
EC50 [10]: > 30 µM (not active)
EC50 [15]: 2.97 µM (active)

EC50 [15]: 9 µM (active)
Structure (SMILES): CC(=O)Nc1ccc(SC[C@H](CC(C)C)N2CCN(CCc3ccccc3)CCC2=O)cc1

IC50 [7]: > 50 µM (not active)
IC50 [16]: > 50 µM (not active)
Structure (SMILES): Cc1cc(Cl)c(S(=O)(=O)Nc2ccc3c(c2)OCO3)cc1OCC(N)=O

IC50 [13]: 10.2 µM (active)
IC50 [8]: > 100 µM (not active)
Structure (SMILES): O=C1[C@H]2CCCC[C@H]2C(=O)N1c1nnc(Cc2ccc(F)cc2)[nH]1

IC50 [6]: 11.8 µM (active)
Structure (SMILES): Cc1nc2c(c(=O)c3ccccc3n2C)c(=O)n1-c1ccccc1

IC50 [13]: > 100 µM (inactive)
Structure (SMILES): CSc1nnc(NC(=O)CSc2nc(C)cc(C)n2)[nH]1

IC50 [14]: 2.78 µM (active)
IC50 [5]: 3.03 µM (active)
Structure (SMILES): C=CCN1C(=O)/C(=C2/C(=O)N(CC(=O)O)c3ccccc32)S/C1=N/c1nccs1
